Experimental findings from US20230135152A1 (ACURASTEM INCORPORATED, priority 2020, published 2023) are described below.

The target of assay [1] is T1, PIKFYVE (Homo sapiens, UniProt Q9Y2I7). Put plainly: PIKFYVE assay (luciferase ADP-Glo kinase assay, Promega). The class given is biochemical. How it is done: The activity of Compounds 1-20 was measured using a PIKFYVE assay (luciferase ADP-Glo kinase assay available from Promega Corp. of Madison, Wis.).
The activity of Compounds 39-90 was also measured using a PIKFYVE assay (luciferase ADP-Glo kinase assay available from Promega Corp. of Madison, Wis.).
The activity of Compounds 93-347 was also measured using a PIKFYVE assay (luciferase ADP-Glo kinase assay available from Promega Corp. of Madison, Wis.).
(In general: ADP-Glo turns the ADP formed in a reaction into a luminescent signal.)

For assay [2], the target named is T1, PIKFYVE. The assay is described as follows: Cell-based Pikfyve inhibition activity assay (EEA1 staining, mean vesicle size in BJ fibroblast cells). As to conditions: Table 4, 4 hours treatment, 3 μM Apilimod = 100% inhibition. Here is the method: BJ fibroblast cells were obtained from American Type Cell Culture (ATCC, CRL-2522). The cells were maintained in DMEM (Genesee Scientific, 25-500) supplemented with 10% fetal bovine serum (Genesee Scientific, 25-514) and 1% penicillin-streptomycin (Genesee Scientific, 25-512) at 37° C. in the atmosphere 5% CO2. BJ fibroblasts were plated into black flat clear bottom 96-well plates (Grenier, 655090) at a density of 3×10^3 per well and were allowed to attach in culture for 8-10 hours before drug treatment. Drugs were tested at eleven doses separated by 3 fold from 0.03 nM to 3000 nM in triplicates for 4 hours at 37° C. After 4 hours, treatment media was aspirated and replaced with 4% Paraformaldehyde (Electron Microscopy Science, 15714-S) and cells were fixed at room temperature for 5 minutes. 4% PFA in wells were then discarded and replaced with a blocking buffer consisting of 1×PBS with 0.1% Tween (Sigma-Aldrich, P1754-500), 5% Donkey Serum (Jackson ImmunoResearch, 017-000-121), and 1% BSA (Caisson Labs, B005-50GM) and incubated at room temperature for 30 minutes. Blocking buffer was then discarded and replaced with a primary EEA1 antibody (Fisher Scientific, BD610457) in a 1:1000 dilution and incubated at 4° C. overnight. Following overnight incubation, plates were washed with 1×PBS three times and incubated with secondary antibody Donkey anti-Mouse IgG, Alexa Fluor 555 (Invitrogen, A31570) (1:1000 dilution) for 1 hour at room temperature in the dark. Subsequently cell plates were washed with 1×PBS three times and can be stored at 4° C. if not being proceeding with imaging procedure.
Images were acquired with 20× objective (ImageXpress MicroConfocal, Molecular Devices) creating z-series of 5 planes (5 steps, […]), 16 tiles per well. Images were then analyzed using a custom CellProfiler protocol to obtain mean vesicle size. The mean vesicle size from 16 images was used as the output for each well. The mean vesicle size from 0.5% DMSO treated condition was considered as having no Pikfyve inhibition activity and the 3 μM Apilimod treated condition was considered as having 100% inhibition activity. The mean vesicle size was converted to % inhibition activity and the data was fitted to a dose-response curve using log(inhibitor) vs normalized response-variable slope using GraphPad Prism.

T1 sequence (Q9Y2I7 whole entry): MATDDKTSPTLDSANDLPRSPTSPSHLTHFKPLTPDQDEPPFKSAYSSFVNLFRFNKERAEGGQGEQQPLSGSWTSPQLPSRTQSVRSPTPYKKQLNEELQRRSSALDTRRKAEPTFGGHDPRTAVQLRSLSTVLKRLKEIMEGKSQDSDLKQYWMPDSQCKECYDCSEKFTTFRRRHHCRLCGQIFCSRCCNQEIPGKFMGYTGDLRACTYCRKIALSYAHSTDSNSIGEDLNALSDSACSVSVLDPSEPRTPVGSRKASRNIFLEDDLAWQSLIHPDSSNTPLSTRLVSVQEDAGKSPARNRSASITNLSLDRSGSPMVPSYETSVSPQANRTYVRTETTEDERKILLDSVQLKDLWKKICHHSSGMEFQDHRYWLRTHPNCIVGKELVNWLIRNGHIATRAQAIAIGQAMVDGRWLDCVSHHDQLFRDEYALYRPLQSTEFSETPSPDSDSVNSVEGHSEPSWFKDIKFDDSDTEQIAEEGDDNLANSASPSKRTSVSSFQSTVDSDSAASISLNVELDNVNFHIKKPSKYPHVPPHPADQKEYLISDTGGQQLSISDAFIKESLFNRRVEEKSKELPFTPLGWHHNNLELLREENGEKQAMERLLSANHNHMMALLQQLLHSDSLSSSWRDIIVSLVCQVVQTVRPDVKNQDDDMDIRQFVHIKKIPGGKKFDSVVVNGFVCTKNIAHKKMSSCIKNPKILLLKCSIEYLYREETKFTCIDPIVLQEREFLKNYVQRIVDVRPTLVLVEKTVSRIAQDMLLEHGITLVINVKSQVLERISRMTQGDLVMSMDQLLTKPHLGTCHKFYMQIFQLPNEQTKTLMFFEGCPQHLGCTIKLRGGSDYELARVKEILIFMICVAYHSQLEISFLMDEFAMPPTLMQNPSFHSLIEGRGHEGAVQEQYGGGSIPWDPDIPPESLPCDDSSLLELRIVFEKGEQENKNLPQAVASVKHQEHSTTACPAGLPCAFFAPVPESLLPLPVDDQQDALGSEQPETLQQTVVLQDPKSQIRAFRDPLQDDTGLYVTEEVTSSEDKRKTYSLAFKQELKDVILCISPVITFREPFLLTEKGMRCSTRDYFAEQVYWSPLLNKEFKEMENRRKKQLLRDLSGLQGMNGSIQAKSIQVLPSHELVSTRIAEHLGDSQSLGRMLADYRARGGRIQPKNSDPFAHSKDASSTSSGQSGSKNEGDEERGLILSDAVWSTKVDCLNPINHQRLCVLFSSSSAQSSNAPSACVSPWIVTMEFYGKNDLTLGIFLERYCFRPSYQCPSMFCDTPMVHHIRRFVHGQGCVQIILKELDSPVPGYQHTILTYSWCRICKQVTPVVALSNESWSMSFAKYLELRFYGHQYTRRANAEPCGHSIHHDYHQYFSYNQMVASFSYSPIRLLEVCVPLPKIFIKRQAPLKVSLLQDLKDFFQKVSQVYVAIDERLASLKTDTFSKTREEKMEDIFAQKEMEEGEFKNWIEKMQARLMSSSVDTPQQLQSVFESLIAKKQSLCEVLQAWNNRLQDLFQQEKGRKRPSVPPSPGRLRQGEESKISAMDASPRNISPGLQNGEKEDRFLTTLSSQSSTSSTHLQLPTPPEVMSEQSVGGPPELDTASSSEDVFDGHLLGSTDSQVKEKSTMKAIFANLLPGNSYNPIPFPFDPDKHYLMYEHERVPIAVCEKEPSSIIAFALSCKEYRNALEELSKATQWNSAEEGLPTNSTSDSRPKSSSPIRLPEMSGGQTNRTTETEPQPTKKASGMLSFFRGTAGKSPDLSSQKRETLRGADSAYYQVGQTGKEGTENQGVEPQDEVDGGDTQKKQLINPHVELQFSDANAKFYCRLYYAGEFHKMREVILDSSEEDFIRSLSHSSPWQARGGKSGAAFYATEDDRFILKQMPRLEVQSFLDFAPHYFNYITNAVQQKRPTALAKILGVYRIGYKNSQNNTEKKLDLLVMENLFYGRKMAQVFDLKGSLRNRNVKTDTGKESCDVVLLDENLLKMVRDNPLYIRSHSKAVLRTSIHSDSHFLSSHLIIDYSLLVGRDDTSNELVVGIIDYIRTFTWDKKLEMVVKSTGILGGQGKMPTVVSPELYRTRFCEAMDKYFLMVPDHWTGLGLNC

On to `Cn1cc(CCOc2nc(N3CCOCC3)cc(-n3nc(O)cc3-c3ccccc3)n2)cn1` [Compound 211, 1-(2-(2-(1-methyl-1H-pyrazol-4-yl)ethoxy)-6-morpholinopyrimidin-4-yl)-5-phenyl-1H-pyrazol-3-ol], for which, in assay [1] (Table 3), the IC50 is < 3 nM. For the same compound, the half-maximal effective concentration (EC50) in assay [2] was 100 to 500 nM.
In assay [1] (Table 3), `Cc1cccc(-c2ccn(-c3cc(N4CCOCC4)n4nc(C)cc4n3)n2)c1` [Compound 336, 4-(2-methyl-5-(3-(m-tolyl)-1H-pyrazol-1-yl)pyrazolo[1,5-a]pyrimidin-7-yl)morpholine] showed an IC50 of 10 to 100 nM. Besides, in assay [2], the 50% effective concentration (EC50) was in the range of 500 to 5000 nM.
As for `CO[C@H](CO)c1nc(N2CCOCC2)cc(-n2ccc(-c3c[nH]c4ncccc34)n2)n1` [Compound 292, (S)-2-(4-(3-(1H-pyrrolo[2,3-b]pyridin-3-yl)-1H-pyrazol-1-yl)-6-morpholinopyrimidin-2-yl)-2-methoxyethan-1-ol], the half-maximal inhibitory concentration (IC50) in assay [1] (Table 3) was 10 to 100 nM. The compound further gave an EC50 in assay [2] of 20 to 100 nM.
The corresponding values for `c1ccc(-c2ccn(-c3cc(N4CCOCC4)nc(OCc4cccnn4)n3)n2)cc1` [Compound 114, 4-(6-(3-phenyl-1H-pyrazol-1-yl)-2-(pyridazin-3-ylmethoxy)pyrimidin-4-yl)morpholine] are 3 to 10 nM and 100 to 500 nM.
For `CO[C@H](CO)c1nc(N2CCOCC2)cc(-n2nc(-c3cccc(C)c3)cc2C)n1` [Compound 225, (S)-2-methoxy-2-(4-(5-methyl-3-(m-tolyl)-1H-pyrazol-1-yl)-6-morpholinopyrimidin-2-yl)ethan-1-ol] the same measures were 3 to 10 nM and 100 to 500 nM.
With `Cn1cc(CCOc2nc(N3CCOCC3)cc(-n3nc(-c4ccccc4)cc3C3CC3)n2)cn1` [Compound 216, 4-(6-(5-cyclopropyl-3-phenyl-1H-pyrazol-1-yl)-2-(2-(1-methyl-1H-pyrazol-4-yl)ethoxy)pyrimidin-4-yl)morpholine], the IC50 in assay [1] (Table 3) was < 3 nM. Moreover, the 50% effective concentration (EC50) in assay [2] was 20 to 100 nM.
For `Cc1cccc(-c2ccn(-c3cc(N4CCOCC4)nc(C(F)(F)F)n3)n2)c1` [Compound 82], the IC50 in assay [1] (Table 2) lay within 5 to 100 nM. The compound further came in with an EC50 in assay [2] of 500 to 5000 nM.
As for `Cc1cccc(-c2ccn(-c3cc(N4CCOCC4)nc(OCCO)n3)n2)c1` [Compound 121, 2-((4-morpholino-6-(3-(m-tolyl)-1H-pyrazol-1-yl)pyrimidin-2-yl)oxy)ethan-1-ol], the IC50 in assay [1] (Table 3) fell in the range of 3 to 10 nM. Further, the half-maximal effective concentration (EC50) in assay [2] is 100 to 500 nM.
As to `COCC(O)c1nc(N2CCOCC2)cc(-n2ccc(-c3cccc(C)c3)n2)n1` (stereo not drawn) [Compound 155, 2-methoxy-1-(4-morpholino-6-(3-(m-tolyl)-1H-pyrazol-1-yl)pyrimidin-2-yl)ethan-1-ol], the concentration for half-maximal inhibition (IC50) in assay [1] (Table 3) was 3 to 10 nM. The compound also had a 50% effective concentration (EC50) in assay [2] of 100 to 500 nM.
For the compound `Cn1cc(CCOc2nc(N3CCOCC3)cc(-n3ccc(-c4cccc(CO)c4)n3)n2)cn1` [Compound 179, (3-(1-(2-(2-(1-methyl-1H-pyrazol-4-yl)ethoxy)-6-morpholinopyrimidin-4-yl)-1H-pyrazol-3-yl)phenyl)methanol], in assay [1] (Table 3), the IC50 is < 3 nM. For the same compound, in assay [2], the concentration for a half-maximal effect (EC50) was < 20 nM.
In the case of `CC(=O)NCCOc1nc(N2CCOCC2)cc(-n2ccc(-c3cccc(C)c3)n2)n1` [Compound 90, N-(2-((4-morpholino-6-(3-(m-tolyl)-1H-pyrazol-1-yl)pyrimidin-2-yl)oxy)ethyl) acetamide], the IC50 in assay [1] (Table 2) is < 5 nM. Moreover, the concentration giving a half-maximal response (EC50) in assay [2] was < 20 nM.
Consider `COC(C)(C)c1nc(N2CCOCC2)cc(-n2ccc(-c3cccc(C)c3)n2)n1` [Compound 347, 4-(2-(2-methoxypropan-2-yl)-6-(3-(m-tolyl)-1H-pyrazol-1-yl)pyrimidin-4-yl)morpholine], for which the IC50 in assay [1] (Table 3) is 3 to 10 nM. The EC50 in assay [2] lay in the range of 100 to 500 nM.
As to `CO[C@@H](CO)c1nc(N2CCOCC2)cc(-n2ccc(-c3c[nH]c4ccccc34)n2)n1` (single isomer, unassigned) [Compound 319], in assay [1] (Table 3), the IC50 was < 3 nM. In assay [2], the concentration giving a half-maximal response (EC50) was < 20 nM.
For `Cc1cccc(-c2ccn(-c3cc(N4CCOCC4)nc(C4CCOCC4)n3)n2)c1` [Compound 326, 4-(2-(tetrahydro-2H-pyran-4-yl)-6-(3-(m-tolyl)-1H-pyrazol-1-yl)pyrimidin-4-yl)morpholine] the same measures were 10 to 100 nM and 500 to 5000 nM.
The corresponding values for `Cc1cccc(-c2ccn(-c3cc(N4CCOCC4)nc(OCC(=O)c4ccccc4)n3)n2)c1` [Compound 169] are 10 to 100 nM and 100 to 500 nM.
The corresponding values for `CCCc1ccn(-c2cc(N3CCOCC3)nc(OCCc3cnn(C)c3)n2)n1` [Compound 124, 4-(2-(2-(1-methyl-1H-pyrazol-4-yl)ethoxy)-6-(3-propyl-1H-pyrazol-1-yl)pyrimidin-4-yl)morpholine] are > 5000 nM and > 5000 nM.
In turn, `COc1nc(N2CCOCC2)cc(-n2ccc(-c3cccc(C)c3)n2)n1` [Compound 59, 4-(2-methoxy-6-(3-(m-tolyl)-1H-pyrazol-1-yl)pyrimidin-4-yl)morpholine] gave an IC50 in assay [1] (Table 2) of 5 to 100 nM. Further, in assay [2], the EC50 was in the range of 20 to 100 nM.
`Cn1cc(C(O)c2nc(N3CCOCC3)cc(-n3ccc(-c4ccccc4)n3)n2)cn1` (stereo not drawn) [Compound 184, (1-methyl-1H-pyrazol-4-yl)(4-morpholino-6-(3-phenyl-1H-pyrazol-1-yl)pyrimidin-2-yl)methanol] returned an IC50 in assay [1] (Table 3) of 10 to 100 nM. This compound displayed a half-maximal effective concentration (EC50) in assay [2] of 100 to 500 nM.
The compound `Cn1cc(CCOc2nc(Oc3cc(-c4ccccc4)nn3C)cc(N3CCOCC3)n2)cn1` [Compound 212, 4-(2-(2-(1-methyl-1H-pyrazol-4-yl)ethoxy)-6-((1-methyl-3-phenyl-1H-pyrazol-5-yl)oxy)pyrimidin-4-yl)morpholine] gave an IC50 in assay [1] (Table 3) of 3 to 10 nM. The compound also yielded a 50% effective concentration (EC50) in assay [2] of 500 to 5000 nM.
For `Cn1cc(CCOc2nc(N3CCOCC3)cc(-n3ccc(C(=O)O)n3)n2)cn1` [Compound 178, 1-(2-(2-(1-methyl-1H-pyrazol-4-yl)ethoxy)-6-morpholinopyrimidin-4-yl)-1H-pyrazole-3-carboxylic acid] the same measures were 100 to 5000 nM and > 5000 nM.
As for `Cn1cc(C(O)CCc2nc(N3CCOCC3)cc(-n3ccc(-c4ccccc4)n3)n2)cn1` (stereo not drawn) [Compound 79, 1-(1-methyl-1H-pyrazol-4-yl)-3-(4-morpholino-6-(3-phenyl-1H-pyrazol-1-yl)pyrimidin-2-yl)propan-1-ol], in assay [1] (Table 2), the IC50 is < 5 nM. The half-maximal effective concentration (EC50) in assay [2] was in the range of 100 to 500 nM.
Compound `Cc1cccc(-c2ccn(-c3cc(N4CCOCC4)nc([C@H]4CCOC4)n3)n2)c1` (single isomer, unassigned) [Compound 329] showed a half-maximal inhibitory concentration (IC50) in assay [1] (Table 3) of 3 to 10 nM. For the same compound, in assay [2], the EC50 is > 5000 nM.
Turning to `CO[C@H](CO)c1nc(N2CCOCC2)cc(-n2ccc(-c3c[nH]c4ccccc34)n2)n1` (single isomer, unassigned) [Compound 318], the half-maximal inhibitory concentration (IC50) in assay [1] (Table 3) is < 3 nM. In assay [2], the 50% effective concentration (EC50) is < 20 nM.
The corresponding values for `Cc1cccc(-c2ccn(-c3cc(N4CCOCC4)nc(OCCc4cnccn4)n3)n2)c1` [Compound 94, 4-(2-(2-(pyrazin-2-yl)ethoxy)-6-(3-(m-tolyl)-1H-pyrazol-1-yl)pyrimidin-4-yl)morpholine] are < 3 nM and < 20 nM.
With `Cn1cc(CCOc2nccc(N3CCOCC3)n2)cn1` [Compound 173, 4-(2-(2-(1-methyl-1H-pyrazol-4-yl)ethoxy)pyrimidin-4-yl)morpholine], the IC50 in assay [1] (Table 3) is > 5000 nM. In addition, in assay [2], the concentration for a half-maximal effect (EC50) is > 5000 nM.
The compound `Cc1cccc(-c2ccn(-c3cc(N4CCOCC4)n4ncc(C)c4n3)n2)c1` [Compound 337, 4-(3-methyl-5-(3-(m-tolyl)-1H-pyrazol-1-yl)pyrazolo[1,5-a]pyrimidin-7-yl)morpholine] yielded a half-inhibitory concentration (IC50) in assay [1] (Table 3) of 10 to 100 nM. The EC50 in assay [2] fell in the range of 500 to 5000 nM.
Turning to `Cn1cc(CCOc2nc(N3CCOCC3)cc(-n3ccc(C4=CC(C)(C)CC=C4)n3)n2)cn1` [Compound 296, 4-(6-(3-(3,3-dimethylcyclohexa-1,5-dien-1-yl)-1H-pyrazol-1-yl)-2-(2-(1-methyl-1H-pyrazol-4-yl)ethoxy)pyrimidin-4-yl)morpholine], the IC50 in assay [1] (Table 3) is 100 to 5000 nM.
Still for that read-out and setting: to `CO[C@H](CO)c1nc(N2CCOCC2)cc(-n2ccc(-c3cccc(C)c3C)n2)n1` [Compound 264, (S)-2-(4-(3-(2,3-dimethylphenyl)-1H-pyrazol-1-yl)-6-morpholinopyrimidin-2-yl)-2-methoxyethan-1-ol] belongs 100 to 5000 nM.

Usually IC50 stands for the concentration at which inhibition is half-maximal. Read a high IC50 as a need for much substance. For orientation: EC50 means the concentration giving half of the maximal effect.
